Where “and” joins values, the source holds several entries; their conditions need not be identical. Equal entries are not always repeated.
Columns and labels:
[1] = kinact was determined; NTD = Not time dependent; format: ADME
[2] = Half-life period of the compound; NTD = Not time dependent; format: ADME
Aromatase [3] = molecular target: T1, Aromatase (Homo sapiens, UniProt P11511); assay: Inhibition of cytochrome P450 19A1
T1 sequence (P11511 whole entry): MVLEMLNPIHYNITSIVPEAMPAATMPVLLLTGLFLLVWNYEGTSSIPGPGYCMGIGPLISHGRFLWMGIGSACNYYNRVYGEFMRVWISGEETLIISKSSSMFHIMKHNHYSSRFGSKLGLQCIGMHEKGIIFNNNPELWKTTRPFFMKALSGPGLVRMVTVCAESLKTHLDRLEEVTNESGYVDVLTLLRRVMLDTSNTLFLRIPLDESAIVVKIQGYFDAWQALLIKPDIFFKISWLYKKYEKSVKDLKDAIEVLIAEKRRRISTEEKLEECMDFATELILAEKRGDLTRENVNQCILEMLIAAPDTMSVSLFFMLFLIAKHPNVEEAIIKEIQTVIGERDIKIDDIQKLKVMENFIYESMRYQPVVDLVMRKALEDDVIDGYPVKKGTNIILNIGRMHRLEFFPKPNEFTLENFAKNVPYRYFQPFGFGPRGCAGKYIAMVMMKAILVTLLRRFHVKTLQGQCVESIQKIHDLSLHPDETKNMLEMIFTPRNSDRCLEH

Aromatase [4] = molecular target: T1, Aromatase; assay: Inhibition of Cytochrome P450 19A1
[5] = kinact was determined.; format: ADME
Aromatase [6] = molecular target: T1, Aromatase; assay: Inhibition constant for human placental Cytochrome P450 19A1
Aromatase [7] = molecular target: T1, Aromatase; assay: Percent cytochrome P450 19A1 activity remaining after 5 minute pretreatment with 0.5 uM androstenedione
Aromatase [8] = molecular target: T1, Aromatase; assay: Percent cytochrome P450 19A1 activity remaining after pretreatment with 0.5 uM androstenedione (t=0 control)
Aromatase [9] = molecular target: T1, Aromatase; assay: Percent cytochrome P450 19A1 activity remaining after 10 minute pretreatment with 0.5 mM beta-mercaptoethanol
Aromatase [10] = molecular target: T1, Aromatase; assay: Percent cytochrome P450 19A1 activity remaining after 10 minute pretreatment with 0.5 uM androstenedione
Aromatase [11] = molecular target: T1, Aromatase; assay: Inhibition constant for human placental cytochrome P450 19A1
Aromatase [12] = molecular target: T1, Aromatase; assay: Percent cytochrome P450 19A1 activity remaining after 10 minute pretreatment with 1 uM androstenedione
Aromatase [13] = molecular target: T1, Aromatase; assay: Percent cytochrome P450 19A1 activity remaining after 5 minute pretreatment with 10 mM beta-mercaptoethanol
Aromatase [14] = molecular target: T1, Aromatase; assay: Percent cytochrome P450 19A1 activity remaining after 5 minute pretreatment with 1 uM androstenedione
Aromatase [15] = molecular target: T1, Aromatase; assay: Percent cytochrome P450 19A1 activity remaining after pretreatment with 1 uM androstenedione (t=0 control)

SMILES	IC50 (Aromatase [3]) [µM]	K inact [5]	Ki (Aromatase [11]) [µM]	further results
C[C@]12CCC(=O)C(SC(F)F)=C1CC[C@@H]1[C@@H]2CC[C@]2(C)C(=O)CC[C@@H]12	2.7			K inact [1]: Not time-dependent; T1/2 [2]: Not time-dependent
C[C@]12CCC(=O)C(SCC#N)=C1CC[C@@H]1[C@@H]2CC[C@]2(C)C(=O)CC[C@@H]12		1.2 10e-3 s-1		IC50 (Aromatase [4]): 3.7 µM; Ki (Aromatase [6]): 0.169 µM
C[C@]12CCC(=O)C(O)=C1CCC1C2=CC[C@]2(C)C(=O)CCC12 (stereo partly specified)	0.35			
C[C@]12CCC(=O)C(S)=C1CCC1C2CC[C@]2(C)C(=O)CCC12 (stereo partly specified)				IC50 (Aromatase [4]): 3.5 µM
COCOC1=C2CCC3C(CC[C@]4(C)C(=O)CCC34)[C@@]2(C)CCC1=O (stereo partly specified)	4.4	Not time-dependent		
COCSC1=C2CCC3C(CC[C@]4(C)C(=O)CCC34)[C@@]2(C)CCC1=O (stereo partly specified)	10	Not time-dependent		
CSC1=C2CCC3C(CC[C@]4(C)C(=O)CCC34)[C@@]2(C)CCC1=O (stereo partly specified)	4.4			K inact [1]: Not time-dependent; T1/2 [2]: Not time-dependent
CSCSC1=C2CCC3C(CC[C@]4(C)C(=O)CCC34)[C@@]2(C)CCC1=O (stereo partly specified)	1.2			K inact [1]: Not time-dependent; T1/2 [2]: Not time-dependent
C[C@]12CCC(=O)C(SCCl)=C1CCC1C2CC[C@]2(C)C(=O)CCC12 (stereo partly specified)	0.94	3.8 10e-3 s-1	0.03	Activity (Aromatase [7]): 70%; Activity (Aromatase [8]): 49%; Activity (Aromatase [9]): 59%; Activity (Aromatase [10]): 36.5% and 46%; Activity (Aromatase [12]): 10.2%; Activity (Aromatase [13]): 5%; Activity (Aromatase [14]): 32% and 36.8%; Activity (Aromatase [15]): 9.8%
C[C@]12CCC(=O)C(S)=C1CCC1C2=CC[C@]2(C)C(=O)CCC12 (stereo partly specified)	3.8	3.9 10e-3 s-1	0.072	
C[C@]12CCC(=O)C(SCF)=C1CCC1C2CC[C@]2(C)C(=O)CCC12 (stereo partly specified)		3.1 10e-3 s-1		IC50 (Aromatase [4]): 0.8 µM; Ki (Aromatase [6]): 0.03 µM
C[C@]12CCC(=O)C(SCCl)=C1CCC1C2=CC[C@]2(C)C(=O)CCC12 (stereo partly specified)	0.86	4.8 10e-3 s-1	0.027	
C[C@]12CCC(=O)C(O)=C1CC[C@@H]1[C@@H]2CC[C@]2(C)C(=O)CC[C@@H]12 [FORMESTANE]	0.37	2.3 10e-3 s-1	0.027	

— ChEMBL document CHEMBL1125454, “Synthesis and evaluation of a new series of mechanism-based aromatase inhibitors” (J Med Chem, 1992)
